Consider 13 compounds from article PMC8002823, “Synthesis and Structure–Activity Relationships of Aristoyagonine Derivatives as Brd4 Bromodomain Inhibitors with X-ray Co-Crystal Research” (Molecules, 2021).

Series [1] addresses T1, Brd4 bromodomain (Homo sapiens, UniProt O60885).
T1 construct: glutathione-S-transferase (GST) and His-tagged bromodomain; made in house
The series can be described thus: Alpha-screen enzyme assay (bromodomain binding to acetylated histone peptide).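 On all read-outs here: AlphaScreen proximity readout pairing streptavidin donor beads with anti-GST acceptor beads, with hits checked against bead interference using a TruHit control kit.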 Particulars: for IC50 / inhibitory activity against Brd4 bromodomain (in words): alpha-screen assay; for IC50: inhibition of bromodomain binding activity, calculated with Prism6.
Method: Bromodomain was prepared as previously described. […] Streptavidin-coated donor beads and anti-GST alpha-screen acceptor beads were added under low-light condition. […] The alpha-screen results were confirmed by using alpha-screen TruHit kits (PerkinElmer, USA).

The test system of series [2] is Ty82 cells. In words: Cell cytotoxic assay in Ty82 cells. Format: cell-based. The conditions noted are these: Homo sapiens; for CC50: Ty82 cell cytotoxic activity, 72 h. As to the method: For the viability experiments, Ty82 cells were seeded in 96-well plates at 30% confluency and exposed to chemicals the next day. After 72 h, WST-1 reagent was added, and absorbance at 450 nm was measured by using a Spectramax spectrophotometer (Molecular Devices, San Jose, CA, USA) in accordance with the manufacturer’s instructions. The CC50 values were calculated by using GraphPad Prism version 5 for Windows. The curves were fitted using a nonlinear regression model with a log (inhibitor) versus response formula.

“And” between values parts separate entries of the source, which are not always exact repeats. Equal values may be shown once.

Usually IC50 stands for the concentration needed to halve the response being measured. Broadly, the melting point is the temperature, or range, at which the solid turns liquid. On to `COc1cccc2c1Oc1c(OC)ccc3c1C(=C2)N(C)C3=O` [Compound 8aa, 5,7-Dimethoxy-1-methylbenzo[6,7]oxepino[4,3,2-cd]isoindol-2(1H)-one], for which the melting point lay in the range of 208 to 210 °C. The IC50 in series [1] was 0.84 µM.
For the compound `CCOc1c(OC)ccc2c1Oc1c(OC)ccc3c1C(=C2)N(C)C3=O` [Compound 8ab, 7-Ethoxy-5,8-dimethoxy-1-methylbenzo[6,7]oxepino[4,3,2-cd]isoindol-2(1H)-one], the “increase in activity compared with 8ae” value in series [1] (Brd4 IC50 ratio) is “four-fold increased activity”. The IC50 in series [1] was 0.86 µM.
What is called CC50 is the concentration at which the toxic effect on the cells reaches its halfway point. A high value points to lower toxicity to the cells. For `COc1ccc(CCOc2c(OC)ccc3c2Oc2c(OC)ccc4c2C(=C3)N(C)C4=O)cc1` [Compound 8ac, 5,8-Dimethoxy-7-(4-methoxyphenethoxy)-1-methylbenzo[6,7]oxepino[4,3,2-cd]isoindol-2(1H)-one], the half-maximal inhibitory concentration (IC50) in series [1] is 3.74 µM. The compound further showed a CC50 in series [2] of over 20 µM.
On to `COc1ccc2c(c1OCCCOc1ccccc1)Oc1c(OC)ccc3c1C(=C2)N(C)C3=O` [Compound 8ad, 5,8-Dimethoxy-1-methyl-7-(3-phenoxypropoxy)benzo[6,7]oxepino[4,3,2-cd]isoindol-2(1H)-one], for which the melting point fell in the range of 189 to 191 °C. Besides, the IC50 in series [1] was 7.08 µM and 7.07 µM. In series [2], the 50% cytotoxic concentration (CC50) was over 4 µM.
`CCOc1ccc2c3c1Oc1c(ccc(OC)c1OC)C=C3N(C)C2=O` [Compound 8ae, 5-Ethoxy-7,8-dimethoxy-1-methylbenzo[6,7]oxepino[4,3,2-cd]isoindol-2(1H)-one]: the melting point fell in the range of 219 to 220 °C. For the same compound, in series [1], the “inhibitory activity against Brd4 bromodomain (in words)” value (“inhibitory activity” below) was “slightly increased the inhibitory activity compared with 8af” and the concentration for half-maximal inhibition (IC50) is 4.16 µM.
In the case of `COc1ccc2c3c1Oc1ccc(OCC(C)C)cc1C=C3N(C)C2=O` [Compound 8ba, 9-Isobutoxy-5-methoxy-1-methylbenzo[6,7]oxepino[4,3,2-cd]isoindol-2(1H)-one], the IC50 in series [1] is 16.7 µM.
For the compound `COc1ccc2c3c1Oc1ccc(C(F)(F)F)cc1C=C3N(C)C2=O` [Compound 8bb, 5-Methoxy-1-methyl-9-(trifluoromethyl)benzo[6,7]oxepino[4,3,2-cd]isoindol-2(1H)-one], in series [1], the “inhibitory activity” value is given as “no inhibitory activity” and the IC50 was over 32 µM. The CC50 in series [2] is over 20 µM.
In turn, `COc1ccc2c3c1Oc1ccc(OCc4ccccc4)cc1C=C3N(C)C2=O` [Compound 8bg, 9-Benzyloxy-5-methoxy-1-methylbenzo[6,7]oxepino[4,3,2-cd]isoindol-2(1H)-one] had a melting point of 187 to 189 °C. Further, in series [1], the “inhibitory activity” value is “did not” and the IC50 is over 32 µM.
For the compound `CCOc1ccc2c3c1Oc1ccc(OCC(C)C)cc1C=C3N(C)C2=O` [Compound 8bi, 9-Isobutoxy-5-ethoxy-1-methylbenzo[6,7]oxepino[4,3,2-cd]isoindol-2(1H)-one], the melting point was 178 to 180 °C. The IC50 in series [1] is over 10 µM.
For `CCOc1ccc2c3c1Oc1ccc(O)cc1C=C3N(C)C2=O` [Compound 8bl, 5-Ethoxy-9-hydroxy-1-methylbenzo[6,7]oxepino[4,3,2-cd]isoindol-2(1H)-one], in series [1], the half-maximal inhibitory concentration (IC50) is 1.12 µM. The compound further displayed a cytotoxic concentration (CC50) in series [2] of 0.31 µM.
In turn, `CCOc1ccc2c3c1Oc1ccc(OCc4ccccc4)cc1C=C3N(C)C2=O` [Compound 8bo] came in with a melting point of 198 to 200 °C.
As for `CCCc1ccc2c3c1Oc1ccc(OCc4ccccn4)cc1C=C3N(C)C2=O` [Compound 8dc, 1-Methyl-5-propyl-9-(pyridine-2-ylmethoxy)benzo[6,7]oxepino[4,3,2-cd]isoindol-2(1H)-one], the IC50 is 1.37 µM in series [1] and 1770 nM in series [2] (TY82, cell cytotoxic activity (Table 4 head prints IC50)).
`Cc1ccc2c3c1Oc1ccc(C(F)(F)F)cc1C=C3N(C)C2=O` [Compound 8df, 1,5-Dimethyl-9-(trifluoromethyl)benzo[6,7]oxepino[4,3,2-cd]isoindol-2(1H)-one] showed a melting point of 227 to 229 °C. Moreover, the IC50 in series [1] is over 32 µM.
